Measured values reported in patent publication US20100029654A1, “CARDIOVASCULAR COMPOSITIONS AND USE OF THE SAME FOR THE TREATMENT OF ALZHEIMER'S DISEASE” (MOUNT SINAI SCHOOL OF MEDICINE, priority 2006, published 2010).

Columns and labels:
[1] = system: primary cortico-hippocampal neuron cultures; test: lactate dehydrogenase (LDH) activity assay in parallel neuron cultures
Procedure: For in vitro treatments drugs available from “The Spectrum Collection” in stocks of 10 mM in DMSO were applied directly to cultures to the desired concentrations (final 1% DMSO); control primary neuron cultures from Tg2576 embryos were treated with vehicle resulting in a final 1% DMSO.
Cell viability was assessed using a commercial available LDH assay kit according to the manufacture's instruction (Promega).

Aβ1-42 peptide = target: T1, Aβ1-42 peptide (Homo sapiens, UniProt P05067); test: Aβ-peptide oligomerization assay in vitro (Western blot, A11 dot blot); format: biochemical
T1 construct: Lyophilized Aβ1-42 peptide was dissolved
T1 sequence (P05067 672-713 limits assumed): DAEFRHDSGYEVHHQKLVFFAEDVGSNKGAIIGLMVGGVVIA
Procedure: Aβ-peptideoligomerization assay in vitro: Lyophilized Aβ1-42 peptide was dissolved in 1,1,1,3,3,3,-hexafluoro-2-propanol (HFIP, from Sigma), incubated at room temperature for 60 min, aliquoted, vacuum dried and stored at −80° C. Aβ peptide was dissolved in DMSO and diluted into ddH2O to a final concentration of 100 μg/ml. The peptide was then mixed with equal volume of drugs and incubated at 37° C. for 1 day (Klein, W. L. 2002. Neurochemistry International 41:345-352).
Following incubation, samples were centrifuged at 14,000×g for 10 min at 4° C. Supernatants were mixed with 2× SDS sample buffer and separated on a 10-20% Tris-Tricine gradient SDS gel (Invitrogen). The separated peptides were subjected to Western blot using 6E10 antibody (1:1000, Signet, St. Louis). Immunoreactive signals were visualized by using enhanced chemiluminescence detection (Amersham), and quantified densitometrically (Quantity One, Bio-Rad).
Immunoreactive signals were detected and quantified as described above.

In the case of “N-(1-oxopentyl)-N-[[2-(1H-tetrazol-5-yl) [1,1-biphenyl]-4-yl]methyl]-L-valine [Valsartan]”, the “LDH (% of ctl)” value ([1]; Primary Screening, table sorted by Aβ1-40) is reported as 94.1 % of ctl, the “LDH (at 5F-5 M)” value ([1]; Table IV) is reported as “no change” and the “LDH at E-5M % of change” value ([1]; drug at E-5M) is reported as 13.0%. The “LDH (% of ctl)” value ([1]; primary screening, table sorted by Aβ1-42) was 94.1 % of ctl, the “in vitro anti-Aβ oligomerization activity compared with other Aβ-lowering antihypertensives” value (Aβ1-42 peptide) was “qualitatively stronger in vitro anti-Aβ oligomerization activity” and the “Aβ1-42 oligomerization (A11 dot-blot)” value (Aβ1-42 peptide; 24 hours after incubation, vs vehicle) was “prevented Aβ1-42 oligomerization”. The “prevention of oligomerization of Aβ1-42 (and Aβ1-40) into >40 kDa HMW species (Western Blot)” value (Aβ1-42 peptide; valsartan 10 μM, vs vehicle) was > 5 fold.
